The source of these data is patent US11548875B2, “Inhibitor compounds for male contraception” (University of Washington, priority 2018, dated 2023).

Where two headings read alike, the source gives them in different places.

The target of one assay is T1, ALDH1A1 (Homo sapiens, UniProt P00352).
T1 sequence (P00352 1-501): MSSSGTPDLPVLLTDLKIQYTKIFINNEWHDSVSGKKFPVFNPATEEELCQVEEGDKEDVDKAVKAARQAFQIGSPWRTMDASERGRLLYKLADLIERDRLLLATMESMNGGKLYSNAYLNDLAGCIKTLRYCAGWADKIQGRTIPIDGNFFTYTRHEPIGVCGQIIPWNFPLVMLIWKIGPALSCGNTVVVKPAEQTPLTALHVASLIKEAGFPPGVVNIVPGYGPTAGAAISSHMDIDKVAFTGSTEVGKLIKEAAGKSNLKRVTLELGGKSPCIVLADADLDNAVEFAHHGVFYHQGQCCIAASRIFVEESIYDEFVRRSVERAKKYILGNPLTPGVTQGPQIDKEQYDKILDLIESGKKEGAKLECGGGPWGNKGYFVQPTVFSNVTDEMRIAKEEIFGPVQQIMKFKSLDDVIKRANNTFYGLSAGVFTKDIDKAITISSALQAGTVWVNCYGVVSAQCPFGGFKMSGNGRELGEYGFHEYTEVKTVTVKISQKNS
Description: Cell-based enzyme assay, retinoic acid production in ALDH1A1/H1299 cells. As to the method:
(§1) ALDH1A1 cDNA clone was purchased transfection-ready, and ALDH1A2 full-length cDNA was subcloned into pcDNA3, a mammalian expression vector. ALDH1A1 and ALDH1A2 were transfected into H1299 cells (CRL5803, ATCC) using Lipofectamine 3000 (Invitrogen) following the manufacturer's instructions. Stably transfected cells were selected with G418 (1.2 mg/ml) and referred to as ALDH1A1/H1299 and ALDH1A2/H1299. For the cell-based enzyme assays,
(§2) H1299 cells were routinely grown in RPMI-1640 (ATCC) supplemented with 10% fetal bovine serum (Atlanta Biologicals) in a 37 C, 5% CO2, moisture-saturated atmosphere. H1299, ALDH1A1/H1299 and ALDH1A2/H1299 cells were seeded into 12-well plates (1×10^5 cells/well) and grown for 2 days to confluence. Confluent cells were treated for 20 hours in the above media excluding serum with 2 μM all-trans-retinal, and varying concentrations of inhibitors. Serum-free media was used for the treatment period to avoid retinoic acid in serum. Retinoic acid concentrations were determined from cells and media, and specificity of inhibitors was determined by comparing retinoic acid levels in the presence and absence of the inhibitors in ALDH1A1- vs. ALDH1A2-expressing cells.

Assay [1] concerns the target T2, ALDH1A2 (Homo sapiens, UniProt O94788).
T2 sequence (O94788 1-518): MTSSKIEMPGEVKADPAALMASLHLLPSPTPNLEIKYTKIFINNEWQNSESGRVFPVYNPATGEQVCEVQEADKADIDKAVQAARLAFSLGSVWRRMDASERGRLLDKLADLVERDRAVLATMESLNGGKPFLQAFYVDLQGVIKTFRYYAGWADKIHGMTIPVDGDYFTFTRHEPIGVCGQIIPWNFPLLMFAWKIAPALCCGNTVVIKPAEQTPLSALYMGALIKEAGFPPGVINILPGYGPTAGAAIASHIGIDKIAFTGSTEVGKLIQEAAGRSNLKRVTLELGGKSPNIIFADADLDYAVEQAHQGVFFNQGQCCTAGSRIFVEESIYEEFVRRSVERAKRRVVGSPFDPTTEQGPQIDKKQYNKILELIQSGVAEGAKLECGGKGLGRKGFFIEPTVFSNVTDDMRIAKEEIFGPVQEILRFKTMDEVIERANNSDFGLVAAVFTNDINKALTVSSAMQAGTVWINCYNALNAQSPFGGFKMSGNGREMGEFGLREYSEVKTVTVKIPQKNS
Nature of the assay: Cell-based enzyme assay, retinoic acid production in ALDH1A2/H1299 cells. As to the method:
as §1, §2

In assay [2] the target is T2, ALDH1A2. Description: Inhibitor screening using purified enzymes: ALDH1A2 activity, retinoic acid production by HPLC (5 uM initial screen, then IC50). Format: biochemical. The conditions noted are these: purified enzyme. Also on record: histidine-tag (C); made in house; host or cells: bacterial expression (pET28 vector, IPTG induction). The text has this: ALDHs were cloned into bacterial expression vector for in vitro enzyme assays and into mammalian expression vectors for cell-based enzyme assays. Human ALDH1A1 cDNA and human ALDH2 cDNA were purchased from OriGene (SC321535) and Open Biosystems (MHS4771-99611182), respectively. and human ALDH1A2 cDNA was cloned from human testis RNA using RT-PCR (Population Division of the Department of Economic and Social Affairs of the United Nations Secretariat. World Population prospects: the 2008 revision. Available at http://www.un.org/esa/population/ (Retrieved Sep. 30, 2011)). For bacterial expression, an open reading frame of ALDH1A1 and ALDH2 were subcloned into the pETite vector (Lucigen) with a 5′ histidine-tag and that of ALDH1A2 into a pET28 vector (Novagen) with a 3′ histidine-tag. Correct frame and sequences were verified through DNA sequencing (UW DNA sequencing facility). ALDHs were induced with 1 mM IPTG and purified using His.Bind resin (Novagen, San Diego, Calif.) and stored in a buffer containing 20 mM Hepes (pH 8), 150 mM KCl and 1 mM EDTA as previously described (Fierce, Y., de Morais Vieira, M., Piantedosi, R., Wyss, A., Blaner, W. S., and Paik, J. (2008) In vitro and in vivo characterization of retinoid synthesis from beta-carotene. Archives of biochemistry and biophysics 472, 126-138).
ALDH1A1 and ALDH1A2 activity was determined as previously reported (Beedle M T, Stevison F, Zhong G, Topping T, Hogarth C, Isoherranen N, Griswold M D. Sources of All-Trans Retinal Oxidation Independent of the Aldehyde Dehydrogenase 1A Isozymes Exist in the Postnatal Testis. Biol Reprod. 2018 Sep. 21. doi: 10.1093/biolre/ioy200). Briefly, purified enzymes were incubated in a buffer containing 10 mM HEPES buffer (pH 8.0), 150 mM potassium chloride and 2 mM EDTA with 2 mM NAD. Retinoic acid production was determined using HPLC as previously reported (Amory J K, Muller C H, Shimshoni A J, Isoherranen N, Paik J, Moreb J S, Amory D W, Evanoff R, Goldstein A S, Griswold M D. Suppression of spermatogenesis by bisdichloroacetyldiamines is mediated by inhibition of testicular retinoic acid biosynthesis. Journal of Andrology 2011; 32(1):111-119). Inhibitors were diluted in DMSO and added to the reactions. […] For initial screening of inhibitors for ALDH1A2, 1 μg ALDH1A2, 5 μM all-trans-retinal and 5 μM inhibitors were incubated for 15 min at 37° C. […] For this purpose, 0.5 μg ALDH1A2 and […] were incubated for 5 minutes at 37° C. with varying concentrations of inhibitors. To determine specificity toward ALDH1A2, the IC50 for […]

As to `CS(=O)(=O)c1ccc(-c2nn(-c3ccc(F)cc3)cc2C(=O)Nc2cccc(C(F)(F)F)c2)cc1` [Compound 256, N-(3-Trifluoromethylphenyl)-1-(4-fluorophenyl)-3-[4-(methylsulfonyl)phenyl]-1H-pyrazole-4-carboxamide], the EC50 on ALDH1A1 (cell-based) was 46 µM; at ALDH1A2 [1] (cell-based), 0.011 µM. Further, half-maximal inhibition on ALDH1A2 [2] (IC50) required 0.112 µM.

With `COC(=O)c1ccc(-n2cc(C(=O)Nc3cccc(F)c3)c(-c3ccc(S(C)(=O)=O)cc3)n2)cc1` [Compound 273, Methyl 4-{4-[(3-fluorophenyl)carbamoyl]-3-[4-(methylsulfonyl)phenyl]-1H-pyrazol-1-yl} benzoate], the EC50 on ALDH1A1 (cell-based) was 5.63 µM; on ALDH1A2 [1] (cell-based) it was 0.045 µM. Besides, the IC50 against ALDH1A2 [2] came out at 0.179 µM.

`CS(=O)(=O)c1ccc(-c2nn(-c3ccc(C=O)cc3)cc2C(=O)Nc2cccc(F)c2)cc1` [Compound 280, 1-(4-Formylphenyl)-3-[4-(methylsulfonyl)phenyl]-N-(3-fluorophenyl)-1H-pyrazole-4-carboxamide]: the EC50 is > 20 µM at ALDH1A1 (cell-based) and 0.3 µM on ALDH1A2 [1] (cell-based). Moreover, the IC50 on ALDH1A2 [2] is > 5 µM.

As to `CNC(=O)c1ccc(-n2cc(C(=O)Nc3cccc(F)c3)c(-c3ccc(S(C)(=O)=O)cc3)n2)cc1` [Compound 285, 1-(4-Methylcarbomylphenyl)-3-[4-(methylsulfonyl)phenyl]-N-(3-fluorophenyl)-1H-pyrazole-4-carboxamide], the EC50 at ALDH1A1 (cell-based) amounted to 0.81 µM; at ALDH1A2 [1] (cell-based), 0.25 µM.

On to `CN(C)C(=O)c1ccc(-n2cc(C(=O)Nc3cccc(F)c3)c(-c3ccc(S(C)(=O)=O)cc3)n2)cc1` [Compound 286, 1-(4-Dimethylcarbomylphenyl)-3-[4-(methylsulfonyl)phenyl]-N-(3-fluorophenyl)-1H-pyrazole-4-carboxamide], for which the EC50 on ALDH1A1 (cell-based) is > 20 µM; at ALDH1A2 [1] (cell-based) it was 0.11 µM.

For the compound `CC(=O)Oc1ccccc1OC(=O)c1cn(-c2cccc(Cl)c2)nc1-c1ccc(S(C)(=O)=O)cc1` [Compound 291, 2-(Acetyloxy)phenyl 1-(3-chlorophenyl)-3-[4-(methylsulfonyl)phenyl]-1H-pyrazole-4-carboxylate], the EC50 at ALDH1A1 (cell-based) was > 20 µM; at ALDH1A2 [1] (cell-based), 0.042 µM.

In the case of `O=C(O)c1ccc(-n2cc(C(=O)Nc3cccc(F)c3)c(-c3ccc(O)cc3)n2)cc1` [Compound 306, 4-{4-[(3-Fluorophenyl)carbamoyl]-3-(4-hydroxyphenyl)-1H-pyrazol-1-yl}benzoic acid], the EC50 came to 9.62 µM at ALDH1A1 (cell-based) and 0.15 µM on ALDH1A2 [1] (cell-based).

`O=C(O)c1ccc(-n2cc(C(=O)Nc3ccccc3O)c(-c3ccc(O)cc3)n2)cc1` [Compound 307, 4-{3-(4-Hydroxyphenyl)-4-[(2-hydroxyphenyl)carbamoyl]-1H-pyrazol-1-yl}benzoic acid]: the EC50 on ALDH1A1 (cell-based) was > 20 µM; at ALDH1A2 [1] (cell-based), 0.25 µM.

In the case of `Cn1cccc1C(=O)N1CCN(c2ccc(NC(=O)C(Cl)Cl)c(N3CCCCCC3)c2)CC1` [Compound 381, {4-[4-Dichloroacetamido-3-(azepan-1-yl)phenyl]piperazin-1-yl}(1-methyl-1H-pyrrol-2-yl)methanone], the EC50 on ALDH1A1 was 0.059 µM; on ALDH1A2 [1] it was > 5 µM. Also, half-maximal inhibition against ALDH1A2 [2] (IC50) required 18.5 µM.

Turning to “Methyl 4-{4-[(2-hydroxyphenyl)carbamoyl]-[4-(methylsulfonyl)phenyl]-1H-pyrazol-1-yl} benzoate [Compound 274]”, the EC50 on ALDH1A1 (cell-based) worked out at 2.23 µM; on ALDH1A2 [1] (cell-based), 0.008 µM. The half-maximal inhibitory concentration (IC50) against ALDH1A2 [2] was determined as 0.131 µM.

In general, EC50 refers to the midpoint of the concentration-response curve. Lower therefore signals a more potent agent. Usually IC50 stands for the point on the concentration scale where inhibition reaches its midpoint.
